Data reported in patent US20240247080A1, “GLP1/GIP/NPY2 RECEPTOR TRIPLE AGONISTS” (Boehringer Ingelheim International GmbH, priority 2022, published 2024).
Like-named read-outs stand apart in the source and are kept apart here. Starred links: 1 amine or outer side, 2 acyl side, 3 side chain; linkers in the order of their positions; H or OH if unused. Non-standard residues stand in square brackets, D forms with d. Groups on a side chain read outwards from the residue. No end group written: not given here. *: point of attachment. C20 diacid = O=C(O)CCCCCCCCCCCCCCCCCCC(=O)*; C18 diacid = O=C(O)CCCCCCCCCCCCCCCCC(=O)*; γGlu = O=C(O)[C@H](CCC(=O)[*:2])N[*:1]; AEEA = NCCOCCOCC(=O)O; Aib = CC(C)(N)C(=O)O; Ahx = NCCCCCC(=O)O

Tests used:
Assay type in all cases: cell-based
Conditions in all cases: CreLuc reporter gene assay
hGLP1R = target: T1, hGLP1R (Homo sapiens, UniProt P43220); experiment: hGLP1R CreLuc reporter gene assay in 0.5% and 100% plasma
T1 construct: expressed in transfected cells; host or cells: HEK-293 cells carrying a CRE-luciferase reporter gene
How it was run: (§1)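 HEK cells (GLP-1R, NPY2R) or CHO cells (GIPR) carrying a CRE-luciferase reporter, incubated 4 h at 37 °C with peptides in HBSS/20 mM HEPES pH 7.4 plus 0.5% human plasma, or in 100% plasma. Luminescence read; EC50 from 8-point variable-slope sigmoid fits.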

hGIPR = target: T2, hGIPR (Homo sapiens, UniProt P48546); experiment: hGIPR CreLuc reporter gene assay in 0.5% and 100% plasma
T2 construct: expressed in transfected cells; host or cells: CHO cells carrying a CRE-luciferase reporter gene
T2 sequence (P48546 22-466): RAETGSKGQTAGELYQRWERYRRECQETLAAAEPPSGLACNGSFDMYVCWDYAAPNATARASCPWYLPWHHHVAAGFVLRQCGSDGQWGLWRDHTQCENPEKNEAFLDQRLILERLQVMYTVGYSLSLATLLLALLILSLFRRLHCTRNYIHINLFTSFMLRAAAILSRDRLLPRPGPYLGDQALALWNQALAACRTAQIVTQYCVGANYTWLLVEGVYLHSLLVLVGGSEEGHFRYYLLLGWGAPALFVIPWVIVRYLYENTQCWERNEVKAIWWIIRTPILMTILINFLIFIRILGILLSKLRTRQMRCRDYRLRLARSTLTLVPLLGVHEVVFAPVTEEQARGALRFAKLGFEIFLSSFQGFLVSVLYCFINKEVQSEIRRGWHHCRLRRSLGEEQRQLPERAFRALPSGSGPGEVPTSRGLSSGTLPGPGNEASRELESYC
How it was run: as §1

hNPY2R = target: T3, hNPY2R (Homo sapiens, UniProt P49146); experiment: hNPY2R CreLuc reporter gene assay in 0.5% and 100% plasma
T3 construct: expressed in transfected cells; host or cells: HEK-293 cells carrying a CRE-luciferase reporter gene
T3 sequence (P49146 1-381): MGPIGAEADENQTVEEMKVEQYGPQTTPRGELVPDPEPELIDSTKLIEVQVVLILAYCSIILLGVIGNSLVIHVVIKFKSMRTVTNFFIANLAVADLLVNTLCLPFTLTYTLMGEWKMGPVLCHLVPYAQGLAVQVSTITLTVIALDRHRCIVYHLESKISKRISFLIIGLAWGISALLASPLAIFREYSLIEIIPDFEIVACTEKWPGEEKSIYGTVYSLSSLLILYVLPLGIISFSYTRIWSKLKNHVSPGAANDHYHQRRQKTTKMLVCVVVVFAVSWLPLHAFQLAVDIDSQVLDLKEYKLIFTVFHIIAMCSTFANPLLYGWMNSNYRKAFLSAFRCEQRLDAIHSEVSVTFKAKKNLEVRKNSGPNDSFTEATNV
How it was run: as §1

[1] = 0.5% human plasma, read-out: hGLP1R 0.5% hP
[2] = 0.5% human plasma, read-out: hGIPR 0.5% hP
[3] = 100% human plasma, read-out: hGIPR 100% hP
[4] = 0.5% human plasma, read-out: hNPY2R 0.5% hP
[5] = 100% human plasma, read-out: hNPY2R 100% hP

T1 sequence (P43220 24-463): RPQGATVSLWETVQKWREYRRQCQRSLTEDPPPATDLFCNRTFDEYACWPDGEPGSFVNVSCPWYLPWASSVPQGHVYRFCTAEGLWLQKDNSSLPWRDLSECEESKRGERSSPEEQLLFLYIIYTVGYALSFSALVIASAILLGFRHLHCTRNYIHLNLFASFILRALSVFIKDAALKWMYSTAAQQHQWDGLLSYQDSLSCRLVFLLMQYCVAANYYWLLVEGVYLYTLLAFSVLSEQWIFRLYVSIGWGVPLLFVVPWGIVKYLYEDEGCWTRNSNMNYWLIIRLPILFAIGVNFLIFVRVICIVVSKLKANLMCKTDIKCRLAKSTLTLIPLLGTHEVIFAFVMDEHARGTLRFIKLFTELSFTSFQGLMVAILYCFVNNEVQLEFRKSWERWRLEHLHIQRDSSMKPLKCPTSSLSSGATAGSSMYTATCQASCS

Molecule | EC50 (hGLP1R; [1]) [nM] | EC50 (hGIPR; [2]) [nM] | EC50 (hGIPR; [3]) [nM] | EC50 (hNPY2R; [4]) [nM] | EC50 (hNPY2R; [5]) [nM] | EC50 (hGLP1R; 100% human plasma, read-out: hGLP1R 100% hP) [nM]
H-Y[Aib]EGTFTSDYSI[Aib]LEKQAQ[Aib]AFVQWLIK([AEEA-AEEA-γGlu-γGlu-γGlu-γGlu-C18 diacid])GGPSEGASLRHYYNWLTRQRY-NH2 [Compound 270, Y-Aib-E-G-T-F-T-S-D-Y-S-I-Aib-L-E-K-Q-A-Q-Aib-A-F-V-Q-W-L-I-K(1,3)-GGPSEGASLRHYYNWLTRQRY-NH2.C18DA-gGlu-gGlu-gGlu-gGlu-OEG-OEG(1,2)] | 0.07 | 0.12 | 0.71 |  | 21.1 | 1.69
H-Y[Aib]EGTFTSDYSI[Aib]LEKQAQ[Aib]AFIEWLIK([γGlu-γGlu-γGlu-γGlu-C18 diacid])GGPSEGASLRHYYNWLTRQRY-NH2 [Compound 247, Y-Aib-E-G-T-F-T-S-D-Y-S-I-Aib-L-E-K-Q-A-Q-Aib-A-F-I-E-W-L-I-K(1,3)-GGPSEGASLRHYYNWLTRQRY-NH2.C18DA-gGlu-gGlu-gGlu-gGlu(1,2)] | 0.11 | 0.26 | 1.57 | 11.9 | 64.7 | 
H-Y[Aib]EGTFTSDYSI[Aib]LEKQAE[Aib]AFVQWLIK([AEEA-AEEA-γGlu-γGlu-γGlu-γGlu-C18 diacid])GGPSEGASLRHYYNWLTRQRY-NH2 [Compound 156, Y-Aib-E-G-T-F-T-S-D-Y-S-I-Aib-L-E-K-Q-A-E-Aib-A-F-V-Q-W-L-I-K(1,3)-GGPSEGASLRHYYNWLTRQRY-NH2.C18DA-gGlu-gGlu-gGlu-gGlu-OEG-OEG(1,2)] | 0.18 | 0.16 |  | 13.5 | 26.5 | 
Y[Aib]EGTFTSDYSI[Aib]LEKQAQ[Aib]AFVQWLIK([AEEA-AEEA-γGlu-γGlu-γGlu-γGlu-C20 diacid])GGPEEPASLRHYYNWLTRQRY-NH2 [Compound 77, Y-Aib-E-G-T-F-T-S-D-Y-S-I-Aib-L-E-K-Q-A-Q-Aib-A-F-V-Q-W-L-I-K(1,3)-GGPEEPASLRHYYNWLTRQRY-NH2.C20DA-gGlu-gGlu-gGlu-gGlu-OEG-OEG(1,2)] | 0.24 | 0.32 |  | 13.7 | 46.3 | 
H-Y[Aib]EGTFTSDYSI[Aib]LEKQAQ[Aib]AFVEWLIK([AEEA-AEEA-γGlu-γGlu-γGlu-γGlu-C18 diacid])GGPEEPASLRHYYNWLTRQRY-NH2 [Compound 161, Y-Aib-E-G-T-F-T-S-D-Y-S-I-Aib-L-E-K-Q-A-Q-Aib-A-F-V-E-W-L-I-K(1,3)-GGPEEPASLRHYYNWLTRQRY-NH2.C18DA-gGlu-gGlu-gGlu-gGlu-OEG-OEG(1,2)] | 0.21 | 0.14 | 1.23 | 11.5 | 41.7 | 

Continued, values first:

EC50 (hGLP1R; [1]) [nM] | EC50 (hGIPR; [2]) [nM] | EC50 (hGIPR; [3]) [nM] | EC50 (hNPY2R; [4]) [nM] | EC50 (hNPY2R; [5]) [nM] | EC50 (hGLP1R; 100% human plasma, read-out: hGLP1R 100% hP) [nM] | Molecule
0.08 | 0.13 | 1.06 | 13.3 | 56.3 |  | CC[C@H](C)[C@H](NC(=O)[C@H](CC(C)C)NC(=O)[C@H](Cc1c[nH]c2ccccc12)NC(=O)[C@H](CCC(N)=O)NC(=O)[C@@H](NC(=O)[C@H](Cc1ccccc1)NC(=O)[C@H](C)NC(=O)C(C)(C)NC(=O)[C@H](CCC(N)=O)NC(=O)[C@H](C)NC(=O)[C@H](CCC(N)=O)NC(=O)[C@H](CCC(=O)O)NC(=O)[C@H](CCC(=O)O)NC(=O)[C@H](CC(C)C)NC(=O)C(C)(C)NC(=O)[C@@H](NC(=O)[C@H](CO)NC(=O)[C@H](Cc1ccc(O)cc1)NC(=O)[C@H](CC(=O)O)NC(=O)[C@H](CO)NC(=O)[C@@H](NC(=O)[C@H](Cc1ccccc1)NC(=O)[C@@H](NC(=O)CNC(=O)[C@H](CCC(=O)O)NC(=O)C(C)(C)NC(=O)[C@@H](N)Cc1ccc(O)cc1)[C@@H](C)O)[C@@H](C)O)[C@@H](C)CC)C(C)C)C(=O)N[C@@H](CCCCNC(=O)[C@@H](N)CCCCNC(=O)CC[C@H](NC(=O)CC[C@H](NC(=O)CC[C@H](NC(=O)[C@H](CCC(=O)O)NC(=O)CC[C@H](NC(=O)CC[C@H](NC(=O)CCCCCCCCCCCCCCCCCCC(=O)O)C(=O)O)C(=O)O)C(=O)O)C(=O)O)C(=O)O)C(=O)NCC(=O)NCC(=O)N1CCC[C@H]1C(=O)N[C@@H](CO)C(=O)N[C@@H](CO)C(=O)NCC(=O)N[C@@H](C)C(=O)N[C@@H](CO)C(=O)N[C@@H](CC(C)C)C(=O)N[C@@H](CCCNC(=N)N)C(=O)N[C@@H](Cc1c[nH]cn1)C(=O)N[C@@H](Cc1ccc(O)cc1)C(=O)N[C@@H](Cc1ccc(O)cc1)C(=O)N[C@@H](CC(N)=O)C(=O)N[C@@H](Cc1c[nH]c2ccccc12)C(=O)N[C@@H](CC(C)C)C(=O)N[C@H](C(=O)N[C@@H](CCCNC(=N)N)C(=O)N[C@@H](CCC(N)=O)C(=O)N[C@@H](CCCNC(=N)N)C(=O)N[C@@H](Cc1ccc(O)cc1)C(N)=O)[C@@H](C)O [Compound 30, Y-Aib-E-G-T-F-T-S-D-Y-S-I-Aib-L-E-E-Q-A-Q-Aib-A-F-V-Q-W-L-I-K(1,3)-GGPSSGASLRHYYNWLTRQRY-NH2.C20DA-gGlu-gGlu-Glu-gGlu-gGlu-gGlu-eLys(1,2)]
0.09 | 0.37 |  | 24.5 |  |  | Y[Aib]EGTFTSDYSI[Aib]LEKQAQ[Aib]AFVQWLIK([Ahx-γGlu-γGlu-γGlu-γGlu-γGlu-γGlu-C18 diacid])GGPSEGASLRHYYNWLTRQRY-NH2 [Compound 245, Y-Aib-E-G-T-F-T-S-D-Y-S-I-Aib-L-E-K-Q-A-Q-Aib-A-F-V-Q-W-L-I-K(1,3)-GGPSEGASLRHYYNWLTRQRY-NH2.C18DA-gGlu-gGlu-gGlu-glu-gGlu-Glu-AHX(1,2)]
0.13 | 0.23 | 1.43 |  | 35.2 |  | CC[C@H](C)[C@H](NC(=O)[C@H](CC(C)C)NC(=O)[C@H](Cc1c[nH]c2ccccc12)NC(=O)[C@H](CCC(=O)O)NC(=O)[C@@H](NC(=O)[C@H](Cc1ccccc1)NC(=O)[C@H](C)NC(=O)C(C)(C)NC(=O)[C@H](CCC(N)=O)NC(=O)[C@H](C)NC(=O)[C@H](CCC(N)=O)NC(=O)[C@H](CCCCN)NC(=O)[C@H](CCC(=O)O)NC(=O)[C@H](CC(C)C)NC(=O)C(C)(C)NC(=O)[C@@H](NC(=O)[C@H](CO)NC(=O)[C@H](Cc1ccc(O)cc1)NC(=O)[C@H](CC(=O)O)NC(=O)[C@H](CO)NC(=O)[C@@H](NC(=O)[C@H](Cc1ccccc1)NC(=O)[C@@H](NC(=O)CNC(=O)[C@H](CCC(=O)O)NC(=O)C(C)(C)NC(=O)[C@@H](N)Cc1ccc(O)cc1)[C@@H](C)O)[C@@H](C)O)[C@@H](C)CC)C(C)C)C(=O)N[C@@H](CCCCNC(=O)[C@@H](N)CCCCNC(=O)CC[C@H](NC(=O)CC[C@H](NC(=O)CC[C@H](NC(=O)CC[C@H](NC(=O)CC[C@H](NC(=O)CC[C@H](NC(=O)CCCCCCCCCCCCCCCCCCC(=O)O)C(=O)O)C(=O)O)C(=O)O)C(=O)O)C(=O)O)C(=O)O)C(=O)NCC(=O)NCC(=O)N1CCC[C@H]1C(=O)N[C@@H](CO)C(=O)N[C@@H](CO)C(=O)NCC(=O)N[C@@H](CCC(N)=O)C(=O)N[C@@H](CO)C(=O)N[C@@H](CC(C)C)C(=O)N[C@@H](CCCNC(=N)N)C(=O)N[C@@H](Cc1c[nH]cn1)C(=O)N[C@@H](Cc1ccc(O)cc1)C(=O)N[C@@H](Cc1ccc(O)cc1)C(=O)N[C@@H](CC(N)=O)C(=O)N[C@@H](Cc1c[nH]c2ccccc12)C(=O)N[C@@H](CC(C)C)C(=O)N[C@H](C(=O)N[C@@H](CCCNC(=N)N)C(=O)N[C@@H](CCC(N)=O)C(=O)N[C@@H](CCCNC(=N)N)C(=O)N[C@@H](Cc1ccc(O)cc1)C(N)=O)[C@@H](C)O [Compound 84, Y-Aib-E-G-T-F-T-S-D-Y-S-I-Aib-L-E-K-Q-A-Q-Aib-A-F-V-E-W-L-I-K(1,3)-GGPSSGQSLRHYYNWLTRQRY-NH2.C20DA-gGlu-gGlu-gGlu-gGlu-gGlu-gGlu-eLys(1,2)]
